We go through 1 substance from US9765115B2, “Inhibitors of metastasis, methods of generating such inhibitors and their therapeutic applications” (Board of Supervisors of Louisiana State University acting …, priority 2011, dated 2017).

For this assay, the system named is ZO-1, claudin-3 and occludin. In words: Subcellular distribution of TJ proteins (immunofluorescence, TX-100 soluble/insoluble fractions). The class given is cell-based. On the procedure: Approximately 1×10^4 cells were grown to confluence on 0.4 μm 12-well Transwell™ filters (Costar, Mass.). After overnight serum starvation, cells were treated with or without 50 nM CT for 60 min, fixed with methanol and incubated with primary antisera (rabbit anti-ZO-1 IgG, Zymed, Calrsbad, Calif.; Claudin-3, CTR-FLAG). Immunostaining was visualized after incubation with TRITC-labelled secondary antibody (1:500). Controls with either non-immune goat IgG or no primary antisera were used in all studies. Digital photographs were taken with Retiga 1300 camera connected to a Nikon Optiphot-2 microscope equipped for epifluorescence, the images were captured at different wavelengths for TRITC and DAPI, were given red and blue pseudo colors respectively, and analyzed using IP Lab™ image analysis program.
Confluent 100 mm plates of each PC sublines were serum starved overnight, and treated with or without 50 nM CT for various periods. Soluble extract (cytosolic) was obtained by incubating cells with 10 mM Tris-HCl, pH-7.4 (containing 150 mM NaCl, 2 mM CaCl2, protease-phosphatase inhibitors cocktail, 1% Nonidet P-40 and 1% Triton-X-100) for 30 min with occasional agitation. After washing the plates with TBS (containing protease inhibitors), the insoluble fraction (plasma membrane-associated) was scraped out from the plates with TBS containing 0.5% SDS, 1% Nonidet P-40, protease inhibitors. The triton X-100-insoluble fraction was collected after homogenizing and centrifuging at 14,000×g for 5 min at 4 C, and protein content of the supernatants was determined using Bio-Rad Reagent (Bio-Rad, Hercules, Calif.).
The lysate fractions were boiled for 5 min in 2× Laemmli buffer. The proteins were fractionated by SDS-PAGE electrophoresis, and electrically transferred to a nitrocellulose membrane. The blots were incubated the appropriate antisera followed by HRP-conjugated secondary antibody; and the blots were developed with ECL. To control for protein loading and transfer, the blots were stripped, and reprobed with either β-actin (insoluble) or α-tubulin (soluble) antibody. The same experiment was repeated two more times.
To test whether CT-mediated loss of TJ functionality is caused by disassembly of TJs, subcellular distribution of key TJ proteins was examined. Polarized PC-3CTRwt cells were treated with 50 nM CT for 30 min, and then processed for immunofluorescence with anti-FLAG (CTR), anti-ZO-1 and anti-claudin-3 antibodies.
It is known that junctional proteins are functional only when they are at cell-cell contacts on the membrane (Shin et al., 2006). Therefore, the subcellular distribution of TJ proteins was analyzed by immunoblotting TX-soluble (cytoplasmic) and TX-insoluble (membrane) fractions of cell lysates. […] The endocytosis of TJ proteins was rapid, and increased progressively throughout the experimental period of four hours. Specifically, translocation of ZO-1 from the insoluble to the soluble compartment was quicker and observed within 1 min of CT stimulus. Similar translocation of occludin was observed after ten min, and that of claudin-3 after 30 min of CT stimulus.
To test whether specific PKA inhibitors abrogate CT-induced TJ disassembly, two specific, well-characterized PKA inhibitors, mPKI and H-89, were used. PC-3CTRwt cells were treated with CT (50 nM for 30 min) in the presence of mPKI (100 nM) or H-89 (10 μM). Either of these inhibitors was added 15 min prior to the addition of CT. […]

Regarding calcitonin [CT], where the note is “CT 50 nM”, the “time to translocation of ZO-1” value was not above 1 min, the “time to translocation of claudin-3” value stood at 30 min and the “time to translocation of occludin” value was “after ten min”. Also, the “localization of CTR, ZO-1 and claudin-3 (immunofluorescence)” value (PC-3CTRwt cells, 50 nM CT, 30 min) is “loss of these proteins at cell-cell contacts and their internalization”. In addition, the “endocytosis of ZO-1, claudin 3 or occludin” value (cells expressing CTRΔESS or ZO-1ΔPDZ3, CT 50 nM) is recorded as “could not induce endocytosis”.
